Experimental data: patent US20090232731A1, “Cationic Liposomal Preparations for the Treatment of Rheumatoid Arthritis” (priority 2006, published 2009)

Columns and labels:
[1] = tested on: collagen induced arthritis; assay: Collagen induced arthritis in B10RIII mice, clinical arthritis score (EndoTAG-1); format: in vivo; conditions: endpoint day 11; i.v. every second day; paclitaxel 2.56 mg/kg, Enbrel 10 mg/kg
[2] = tested on: collagen induced arthritis; assay: Collagen induced arthritis in DBA/1 mice, clinical arthritis score (EndoMTX); format: in vivo; conditions: day 34; i.v. 3 times a week from day 15, 5.0 mg/kg methotrexate where loaded
Protocol: Male DBA/1 mice with an age of ten weeks at arrival were purchased from Taconic Europe and housed in isolated cages under save environmental conditions (Five mice per cage, 22° C., 30-70% humidity and 12 h light/dark cycle) with food and water ad libitum. Experimental design was reviewed and approved by local government.
Mice were assigned to the experimental groups acclimated at least 7 days before induction of collagen induced arthritis. Animals were anesthetized intraperitoneally (i.p.) with a mixture of Xylazin and Ketamin. Each animal obtained 4 ml/kg as application volume. 0.5 ml Rompun (20 mg/ml Xylazin) and 1 ml Ketamin (100 mg/ml Ketamin) were mixed (1:2) and diluted 1:4 in 4.5 ml 0.9% NaCl. 2. For the Collagen Type II-CFA emulsions, Collagen (bovine, 4 mg/ml) was mixed 1:1 with CFA by repeated passage through a flexible tube connecting two 1-ml syringes (syringe-syringe-method). This mixture was kept on ice and will be applied within 4 hours after preparation. For the immunization 100 μl Collagen/CFA-emulsion was injected subcutaneously at the base of the tail. The injection of Collagen/CFA-emulsion was done once on day 0 and once as a booster immunization on day 21. After two weeks the animals were controlled for symptoms of collagen induced arthritis (CIA) by joint scoring three times a week. […]

With Enbrel the “order of antiarthritic efficacy (mean clinical arthritis score)” value [1] was “Enbrel>EndoTAG-1>EndoTAG-1 placebo and Taxol®”.

For `CN(Cc1cnc2nc(N)nc(N)c2n1)c1ccc(C(=O)N[C@@H](CCC(=O)O)C(=O)O)cc1` [MTX, N-[4-[[(2,4-diamino-6-pteridinyl)methyl]methylamino]benzoyl]-L-glutamic acid], the “order of antiarthritic efficacy (mean clinical arthritis score)” value [2] was “EndoMTX>EndoMTX placebo>MTX”.
